23 compounds from US10987359B2, “Oxadiazepinone derivatives and methods of treating hepatitis B infections” (priority 2016, dated 2021) can be followed below.

Where two headings read alike, the source gives them in different places.

This assay has as its system HBV. The assay can be described thus: HBV replication inhibition assay (BDNA assay) in HepG2.2.15 cells. The class given is cell-based. Particulars: HepG2.2.15 cells, read-out: DNA EC50. The method, boiled down:
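Supernatant encapsidated HBV DNA was measured by bDNA after DNase digestion and proteinase K release. Stably HBV-integrated HepG2.2.15 cells had two 3-day compound exposures (0.5% DMSO). Signals were background-subtracted and normalized to DMSO wells, and EC50 was obtained by four-parameter fit.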

[1] abbreviates: Hepatitis B virus, HepG2.2.15, HBV replication assay (BDNA assay).
The mark [2] stands for this setting: HBV replication assay (BDNA assay).

In general, EC50 refers to the concentration needed to bring the measured effect to its halfway point. Take `CN1OC(CO)Cn2nc3c(c2C1=O)CN(C(=O)Nc1ccc(F)c(C(F)(F)F)c1F)CC3` (single isomer, unassigned) [Compound 149_E1, (S*)—N-(2,4-difluoro-3-(trifluoromethyl)phenyl)-4-(hydroxymethyl)-2-methyl-1-oxo-1,4,5,8,9,11-hexahydropyrido[4′,3′:3,4]pyrazolo[5,1-d][1,2,5]oxadiazepine-10(2H)-carboxamide]: the EC50 under setting [1] is 1 to 100 nM.

Turning to `C=CCN1OCCn2nc3c(c2C1=O)CN(C(=O)Nc1ccc(F)c(Cl)c1)CC3` [Compound 067, 2-allyl-N-(3-chloro-4-fluoro-phenyl)-1-oxo-5,8,9,11-tetrahydro-4H-pyrido[2,3]pyrazolo[2,4-c][1,2,5]oxadiazepine-10-carboxamide], under setting [1], the 50% effective concentration (EC50) lay within 1 to 100 nM.

As for `CN1OC(CO)Cn2nc3c(c2C1=O)CN(C(=O)Nc1ccnc(Cl)c1F)CC3` (centres unmarked) [Compound 003, N-(2-chloro-3-fluoropyridin-4-yl)-4-(hydroxymethyl)-2-methyl-1-oxo-1,4,5,8,9,11-hexahydropyrido[4′,3′:3,4]pyrazolo[5,1-d][1,2,5]oxadiazepine-10(2H)-carboxamide], the EC50 under setting [1] lay within 100 to 500 nM.

As for `CN1NC(O)(C(F)(F)F)Cn2nc3c(c2C1=O)CN(C(=O)Nc1ccc(F)c(Cl)c1)CC3` (centres unmarked) [Compound 226, N-(3-chloro-4-fluorophenyl)-4-hydroxy-2-methyl-1-oxo-4-(trifluoromethyl)-1,2,3,4,5,8,9,11-octahydro-10H-pyrido[4′,3′:3,4]pyrazolo[5,1-d][1,2,5]triazepine-10-carboxamide], the EC50 under setting [1] was above 1000 nM.

With `CN1OC(CO)Cn2nc3c(c2C1=O)CC(C(=O)Nc1ccc(F)c(Cl)c1)CC3` (centres unmarked) [Compound 209, N-(3-chloro-4-fluoro-phenyl)-4-(hydroxymethyl)-2-methyl-1-oxo-4,5,8,9,10,11-hexahydro-[1,2,5]oxadiazepino[5,4-b]indazole-10-carboxamide], under setting [1], the 50% effective concentration (EC50) was in the range of 500 to 1000 nM.

Take `CN1O[C@@H](C[S@+](C)[O-])Cn2nc3c(c2C1=O)CN(C(=O)Nc1ccc(F)c(Cl)c1)CC3` (stereo in doubt) [Compound 049_E4, (R*)—N-(3-chloro-4-fluorophenyl)-2-methyl-4-(((S*)-methylsulfinyl)methyl)-1-oxo-1,4,5,8,9,11-hexahydropyrido[4′,3′:3,4]pyrazolo[5,1-d][1,2,5]oxadiazepine-10(2H)-carboxamide]: under setting [1], the EC50 was 100 to 500 nM.

As to `CN1OC(CO)Cn2nc3c(c2C1=O)CN(C(=O)Nc1cc(F)c(F)c(Br)c1)CC3` (centres unmarked) [Compound 015, N-(3-bromo-4,5-difluorophenyl)-4-(hydroxymethyl)-2-methyl-1-oxo-1,4,5,8,9,11-hexahydropyrido[4′,3′:3,4]pyrazolo[5,1-d][1,2,5]oxadiazepine-10(2H)-carboxamide], under setting [1], the EC50 was 1 to 100 nM.

In the case of `CN1O[C@H](C[S@+](C)[O-])Cn2nc3c(c2C1=O)CN(C(=O)Nc1ccc(F)c(Cl)c1)CC3` (stereo in doubt) [Compound 049_E1, (S*)—N-(3-chloro-4-fluorophenyl)-2-methyl-4-(((S*)-methylsulfinyl)methyl)-1-oxo-1,4,5,8,9,11-hexahydropyrido[4′,3′:3,4]pyrazolo[5,1-d][1,2,5]oxadiazepine-10(2H)-carboxamide], the concentration giving a half-maximal response (EC50) under setting [1] lay in the range of 100 to 500 nM.

Turning to `CN1OC(CNCC(F)F)Cn2nc3c(c2C1=O)CN(C(=O)Nc1ccc(F)c(Cl)c1F)CC3` (single isomer, unassigned) [Compound 188_E1, (S*)—N-(3-chloro-2,4-difluorophenyl)-4-(((2,2-difluoroethyl)amino)methyl)-2-methyl-1-oxo-1,4,5,8,9,11-hexahydropyrido[4′,3′:3,4]pyrazolo[5,1-d][1,2,5]oxadiazepine-10(2H)-carboxamide], under setting [1], the half-maximal effective concentration (EC50) is 1 to 100 nM.

Take `CN1OC(CNCC(F)F)Cn2nc3c(c2C1=O)CN(C(=O)Nc1ccc(F)c(C#N)c1)CC3` (single isomer, unassigned) [Compound 187_E1, (S*)—N-(3-cyano-4-fluorophenyl)-4-(((2,2-difluoroethyl)amino)methyl)-2-methyl-1-oxo-1,4,5,8,9,11-hexahydropyrido[4′,3′:3,4]pyrazolo[5,1-d][1,2,5]oxadiazepine-10(2H)-carboxamide]: the half-maximal effective concentration (EC50) under setting [1] lay within 1 to 100 nM.

Regarding `COC(=O)NCC1Cn2nc3c(c2C(=O)N(C)O1)CN(C(=O)Nc1ccc(F)c(C#N)c1)[C@H](C)C3` (single isomer, unassigned) [Compound 180_D1, methyl (((4S*,9R)-10-((3-cyano-4-fluorophenyl)carbamoyl)-2,9-dimethyl-1-oxo-1,2,4,5,8,9,10,11-octahydropyrido[4′,3′:3,4]pyrazolo[5,1-d][1,2,5]oxadiazepin-4-yl)methyl)carbamate], under setting [1], the concentration giving a half-maximal response (EC50) fell in the range of 1 to 100 nM.

On to `Cc1cc(F)c(Br)cc1NC(=O)N1CCc2nn3c(c2C1)C(=O)N(C)OC(CO)C3` (centres unmarked) [Compound 018, N-(5-bromo-4-fluoro-2-methylphenyl)-4-(hydroxymethyl)-2-methyl-1-oxo-1,4,5,8,9,11-hexahydropyrido[4′,3′:3,4]pyrazolo[5,1-d][1,2,5]oxadiazepine-10(2H)-carboxamide], for which, under setting [1], the EC50 lay within 1 to 100 nM.

`CCC(O)C1=NN(C)C(=O)c2c3c(nn2C1)CCN(C(=O)Nc1ccc(F)c(Cl)c1)C3` (centres unmarked) [Compound 229, N-(3-chloro-4-fluorophenyl)-4-(1-hydroxypropyl)-2-methyl-1-oxo-1,2,5,8,9,11-hexahydro-10H-pyrido[4′,3′:3,4]pyrazolo[5,1-d][1,2,5]triazepine-10-carboxamide]: under setting [1], the 50% effective concentration (EC50) is 100 to 500 nM.

Turning to `CC(=O)NCC1Cn2nc3c(c2C(=O)N(C)O1)CN(C(=O)Nc1ccc(F)c(C#N)c1)[C@H](C)C3` (single isomer, unassigned) [Compound 176_D1, (4S*,9R)-4-(acetamidomethyl)-N-(3-cyano-4-fluorophenyl)-2,9-dimethyl-1-oxo-1,4,5,8,9,11-hexahydropyrido[4′,3′:3,4]pyrazolo[5,1-d][1,2,5]oxadiazepine-10(2H)-carboxamide], under setting [2], the half-maximal effective concentration (EC50) lay in the range of 100 to 500 nM.

In the case of `C[C@@H]1Cc2nn3c(c2CN1C(=O)Nc1ccc(F)c(C#N)c1)C(=O)N(C)N(CCCO)CC3` [Compound 222, (R)—N-(3-Cyano-4-fluorophenyl)-3-(3-hydroxypropyl)-2,9-dimethyl-1-oxo-1,2,3,4,5,8,9,11-octahydro-10H-pyrido[4′,3′:3,4]pyrazolo[5,1-d][1,2,5]triazepine-10-carboxamide], the concentration giving a half-maximal response (EC50) under setting [1] is 100 to 500 nM.

For the compound `C[C@@H]1Cc2nn3c(c2CN1C(=O)Nc1ccc(F)c(C#N)c1)C(=O)N(C)OC(CO)C3` (stereo in doubt) [Compound 084_E2, (4R*,9R)—N-(3-cyano-4-fluorophenyl)-4-(hydroxymethyl)-2,9-dimethyl-1-oxo-1,4,5,8,9,11-hexahydropyrido[4′,3′:3,4]pyrazolo [5,1-d][1,2,5]oxadiazepine-10(2H)-carboxamide], the half-maximal effective concentration (EC50) under setting [2] is 1 to 100 nM.

Regarding `CN1OC(CO)Cn2nc3c(c2C1=O)CN(C(=O)Nc1cc(C#N)ccc1F)CC3` (single isomer, unassigned) [Compound 145_E1, (S*)—N-(5-cyano-2-fluorophenyl)-4-(hydroxymethyl)-2-methyl-1-oxo-1,4,5,8,9,11-hexahydropyrido[4′,3′:3,4]pyrazolo[5,1-d][1,2,5]oxadiazepine-10(2H)-carboxamide], the EC50 under setting [1] is above 1000 nM.

On to `CN1OC(CO)Cn2nc3c(c2C1=O)CN(C(=O)Nc1ccc(Cl)c(Cl)c1)CC3` (centres unmarked) [Compound 012, N-(3,4-dichlorophenyl)-4-(hydroxymethyl)-2-methyl-1-oxo-1,4,5,8,9,11-hexahydropyrido[4′,3′:3,4]pyrazolo[5,1-d][1,2,5]oxadiazepine-10(2H)-carboxamide], for which the EC50 under setting [1] was in the range of 1 to 100 nM.

Consider `CN1OC(COCC(F)F)Cn2nc3c(c2C1=O)CN(C(=O)Nc1ccc(F)c(Cl)c1)CC3` (centres unmarked) [Compound 105, N-(3-chloro-4-fluoro-phenyl)-4-(2,2-difluoroethoxymethyl)-2-methyl-1-oxo-5,8,9,11-tetrahydro-4H-pyrido[2,3]pyrazolo[2,4-d][1,2,5]oxadiazepine-10-carboxamide], for which the EC50 under setting [1] is 1 to 100 nM.

On to `CN1CCn2nc3c(c2C(=O)N1C)CN(C(=O)Nc1ccc(F)c(Cl)c1)CC3` [Compound 217, N-(3-Chloro-4-fluorophenyl)-2,3-dimethyl-1-oxo-1,2,3,4,5,8,9,11-octahydro-10H-pyrido[4′,3′:3,4]pyrazolo[5,1-d][1,2,5]triazepine-10-carboxamide], for which the half-maximal effective concentration (EC50) under setting [1] lay in the range of 1 to 100 nM.

As to `C[C@@H]1Cc2nn3c(c2CN1C(=O)Nc1ccc(F)c(Cl)c1)C(=O)N(C)OC(CN(C)C)C3` (stereo in doubt) [Compound 093_D2, (4R*,9R)—N-(3-chloro-4-fluorophenyl)-4-((dimethylamino)methyl)-2,9-dimethyl-1-oxo-1,4,5,8,9,11-hexahydropyrido[4′,3′:3,4]pyrazolo[5,1-d][1,2,5]oxadiazepine-10(2H)-carboxamide], under setting [1], the concentration giving a half-maximal response (EC50) was in the range of 1 to 100 nM.

As for `CN1OC(CO)Cn2nc3c(c2C1=O)CN(C(=O)Nc1ccc(F)c(Br)c1)CC3` (single isomer, unassigned) [Compound 032_E1, (S*)—N-(3-bromo-4-fluorophenyl)-4-(hydroxymethyl)-2-methyl-1-oxo-1,4,5,8,9,11-hexahydropyrido[4′,3′:3,4]pyrazolo[5,1-d][1,2,5]oxadiazepine-10(2H)-carboxamide], the 50% effective concentration (EC50) under setting [1] lay within 1 to 100 nM.

With `C[C@@H]1Cc2nn3c(c2CN1C(=O)Nc1cc(Cl)c(F)cc1F)C(=O)N(C)OC(CN(C)C)C3` (stereo in doubt) [Compound 099_D1, (4S*,9R)—N-(5-chloro-2,4-difluorophenyl)-4-((dimethylamino)methyl)-2,9-dimethyl-1-oxo-1,4,5,8,9,11-hexahydropyrido[4′,3′:3,4]pyrazolo[5,1-d][1,2,5]oxadiazepine-10(2H)-carboxamide], the EC50 under setting [1] was 100 to 500 nM.
